Assay results taken from ChEMBL document CHEMBL4130363, “Synthesis and pharmacological evaluation of benzamide derivatives as potent and selective sigma-1 protein ligands” (Eur J Med Chem, 2017).

Legend:
[1] = target: 5-hydroxytryptamine receptor 1B (Homo sapiens) (UniProt P28222); assay: Antagonist activity at recombinant human 5-HT1B assessed as inhibition of agonist-induced effect at 10 uM by GTPgamma[35S] binding-based assay; assay type: functional
[2] = target: T1, 5-hydroxytryptamine receptor 2C (Homo sapiens) (UniProt P28335); assay: Agonist activity at recombinant human 5-HT2C at 10 uM by aequorin reporter based assay relative to agonist; assay type: functional
T1 sequence (whole entry): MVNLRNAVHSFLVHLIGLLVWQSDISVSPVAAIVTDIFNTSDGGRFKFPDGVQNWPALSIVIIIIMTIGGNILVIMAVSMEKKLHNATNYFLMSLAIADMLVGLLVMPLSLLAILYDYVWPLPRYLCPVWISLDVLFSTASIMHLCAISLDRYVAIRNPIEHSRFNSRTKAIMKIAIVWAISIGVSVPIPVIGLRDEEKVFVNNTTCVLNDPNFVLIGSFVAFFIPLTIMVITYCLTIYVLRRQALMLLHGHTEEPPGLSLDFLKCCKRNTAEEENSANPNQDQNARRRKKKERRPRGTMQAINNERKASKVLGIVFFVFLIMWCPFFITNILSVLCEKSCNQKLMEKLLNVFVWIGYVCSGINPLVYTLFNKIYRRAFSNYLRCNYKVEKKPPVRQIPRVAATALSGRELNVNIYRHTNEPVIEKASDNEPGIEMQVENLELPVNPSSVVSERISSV

[3] = target: 5-hydroxytryptamine receptor 4 (Homo sapiens) (UniProt Q13639); assay: Agonist activity at recombinant human 5-HT4E assessed as induction of cAMP levels at 10 uM by HTRF assay relative to agonist; assay type: functional
Sequence of 5-hydroxytryptamine receptor 4 (Homo sapiens) (Q13639 whole entry): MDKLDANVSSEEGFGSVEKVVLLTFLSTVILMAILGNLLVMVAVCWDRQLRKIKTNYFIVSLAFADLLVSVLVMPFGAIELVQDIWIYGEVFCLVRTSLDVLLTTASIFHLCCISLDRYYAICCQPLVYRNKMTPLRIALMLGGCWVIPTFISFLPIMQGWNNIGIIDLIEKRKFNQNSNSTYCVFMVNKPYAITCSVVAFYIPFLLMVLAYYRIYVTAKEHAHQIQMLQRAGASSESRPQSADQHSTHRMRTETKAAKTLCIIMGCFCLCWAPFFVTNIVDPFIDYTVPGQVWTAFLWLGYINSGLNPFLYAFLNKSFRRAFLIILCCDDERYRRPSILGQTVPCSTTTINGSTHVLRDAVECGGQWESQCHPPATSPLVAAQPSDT

[4] = target: 5-hydroxytryptamine receptor 5A (Homo sapiens) (UniProt P47898); assay: Agonist activity at recombinant human 5-HT5A at 10 uM by aequorin reporter based assay relative to agonist; assay type: functional
Sequence of 5-hydroxytryptamine receptor 5A (Homo sapiens) (P47898 whole entry): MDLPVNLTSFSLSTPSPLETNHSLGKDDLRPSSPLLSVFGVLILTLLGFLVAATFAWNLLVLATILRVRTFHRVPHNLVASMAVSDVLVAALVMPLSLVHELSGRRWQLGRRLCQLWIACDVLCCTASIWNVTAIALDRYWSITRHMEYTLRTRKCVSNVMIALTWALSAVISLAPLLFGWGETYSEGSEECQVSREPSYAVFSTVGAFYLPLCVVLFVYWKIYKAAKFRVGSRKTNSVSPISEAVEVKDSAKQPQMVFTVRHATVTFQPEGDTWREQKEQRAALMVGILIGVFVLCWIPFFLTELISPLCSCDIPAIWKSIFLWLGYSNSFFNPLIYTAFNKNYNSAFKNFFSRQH

[5] = target: Adenosine receptor A2a (Homo sapiens) (UniProt P29274); assay: Agonist activity at recombinant human adenosine A2A receptor assessed as induction of cAMP levels at 10 uM by HTRF assay relative to agonist; assay type: functional
Sequence of Adenosine receptor A2a (Homo sapiens) (P29274 whole entry): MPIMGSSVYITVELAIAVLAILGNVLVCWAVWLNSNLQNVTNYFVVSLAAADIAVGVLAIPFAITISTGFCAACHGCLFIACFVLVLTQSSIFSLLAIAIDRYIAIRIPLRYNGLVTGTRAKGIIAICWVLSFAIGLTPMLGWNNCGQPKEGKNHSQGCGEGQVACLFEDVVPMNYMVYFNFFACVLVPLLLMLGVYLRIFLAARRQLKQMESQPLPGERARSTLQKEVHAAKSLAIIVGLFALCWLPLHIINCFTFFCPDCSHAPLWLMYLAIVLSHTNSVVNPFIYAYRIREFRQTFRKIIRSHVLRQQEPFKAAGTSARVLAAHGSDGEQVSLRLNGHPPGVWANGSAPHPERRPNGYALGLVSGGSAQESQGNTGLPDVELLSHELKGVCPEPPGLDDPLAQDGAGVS

[6] = target: Beta-1 adrenergic receptor (Homo sapiens) (UniProt P08588); assay: Agonist activity at recombinant human beta-1 adrenergic receptor assessed as induction of cAMP levels at 10 uM by HTRF assay relative to agonist; assay type: functional
Sequence of Beta-1 adrenergic receptor (Homo sapiens) (P08588 whole entry, looked up): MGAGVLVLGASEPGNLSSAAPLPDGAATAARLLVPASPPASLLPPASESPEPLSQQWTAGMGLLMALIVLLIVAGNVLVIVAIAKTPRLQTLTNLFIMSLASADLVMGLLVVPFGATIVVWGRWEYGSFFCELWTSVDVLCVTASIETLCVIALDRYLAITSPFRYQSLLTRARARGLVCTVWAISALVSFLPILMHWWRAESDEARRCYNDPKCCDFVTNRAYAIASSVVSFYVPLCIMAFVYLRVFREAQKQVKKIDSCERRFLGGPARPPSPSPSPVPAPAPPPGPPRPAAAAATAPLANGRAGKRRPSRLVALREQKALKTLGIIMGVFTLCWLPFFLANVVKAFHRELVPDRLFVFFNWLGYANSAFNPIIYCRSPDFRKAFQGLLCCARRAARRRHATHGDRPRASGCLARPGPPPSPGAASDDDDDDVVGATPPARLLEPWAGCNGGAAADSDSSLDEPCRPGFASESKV

[7] = target: T2, Cholecystokinin receptor type A (Homo sapiens) (UniProt P32238); assay: Agonist activity at recombinant human […] receptor at 10 uM by aequorin reporter based assay relative to agonist; assay type: functional
T2 sequence (whole entry): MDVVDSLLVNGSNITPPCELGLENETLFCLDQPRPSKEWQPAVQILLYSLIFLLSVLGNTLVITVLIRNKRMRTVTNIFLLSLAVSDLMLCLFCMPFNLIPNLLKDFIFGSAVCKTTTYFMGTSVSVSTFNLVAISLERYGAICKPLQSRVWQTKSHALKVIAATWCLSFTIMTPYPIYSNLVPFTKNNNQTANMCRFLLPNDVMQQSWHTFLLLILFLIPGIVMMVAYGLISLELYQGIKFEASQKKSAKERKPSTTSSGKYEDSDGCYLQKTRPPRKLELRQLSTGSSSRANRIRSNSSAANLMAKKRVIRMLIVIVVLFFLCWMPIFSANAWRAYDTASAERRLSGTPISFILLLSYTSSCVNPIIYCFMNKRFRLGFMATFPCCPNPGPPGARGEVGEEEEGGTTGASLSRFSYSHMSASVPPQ

[8] = target: D(1A) dopamine receptor (Homo sapiens) (UniProt P21728); assay: Antagonist activity at recombinant human dopamine D1 receptor assessed as inhibition of agonist-induced cAMP induction at 10 uM by HTRF assay; assay type: functional
Sequence of D(1A) dopamine receptor (Homo sapiens) (P21728 whole entry): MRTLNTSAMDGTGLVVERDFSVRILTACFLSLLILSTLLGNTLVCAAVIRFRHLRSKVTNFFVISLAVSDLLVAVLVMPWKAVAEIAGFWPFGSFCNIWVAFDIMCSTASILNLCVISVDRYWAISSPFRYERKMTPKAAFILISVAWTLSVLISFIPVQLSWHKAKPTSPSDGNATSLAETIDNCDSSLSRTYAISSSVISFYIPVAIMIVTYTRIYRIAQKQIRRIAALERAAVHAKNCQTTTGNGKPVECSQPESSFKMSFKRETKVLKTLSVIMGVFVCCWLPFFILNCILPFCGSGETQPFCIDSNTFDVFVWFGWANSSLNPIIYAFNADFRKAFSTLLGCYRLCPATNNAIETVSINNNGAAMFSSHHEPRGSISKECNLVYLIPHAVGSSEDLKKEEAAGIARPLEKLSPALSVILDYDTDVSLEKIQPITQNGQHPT

[9] = target: D(2) dopamine receptor (Homo sapiens) (UniProt P14416); assay: Agonist activity at recombinant human dopamine D2L receptor at 10 uM by GTPgamma[35S] binding-based assay relative to agonist
Sequence of D(2) dopamine receptor (Homo sapiens) (P14416 whole entry): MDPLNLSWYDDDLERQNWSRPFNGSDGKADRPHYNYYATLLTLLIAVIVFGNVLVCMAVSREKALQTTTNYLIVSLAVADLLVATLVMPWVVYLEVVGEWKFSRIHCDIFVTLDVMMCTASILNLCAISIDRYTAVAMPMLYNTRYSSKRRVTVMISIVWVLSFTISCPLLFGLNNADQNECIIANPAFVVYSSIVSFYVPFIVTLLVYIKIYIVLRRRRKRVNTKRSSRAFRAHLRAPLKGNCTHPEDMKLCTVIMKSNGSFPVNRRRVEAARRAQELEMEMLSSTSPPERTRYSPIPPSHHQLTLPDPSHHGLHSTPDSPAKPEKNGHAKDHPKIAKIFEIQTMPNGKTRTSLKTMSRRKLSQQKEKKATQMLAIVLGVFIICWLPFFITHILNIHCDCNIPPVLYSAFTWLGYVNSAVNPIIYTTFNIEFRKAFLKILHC

[10] = target: Histamine H1 receptor (Homo sapiens) (UniProt P35367); assay: Agonist activity at recombinant human histamine H1 receptor at 10 uM by aequorin reporter based assay relative to agonist; assay type: functional
Sequence of Histamine H1 receptor (Homo sapiens) (P35367 whole entry): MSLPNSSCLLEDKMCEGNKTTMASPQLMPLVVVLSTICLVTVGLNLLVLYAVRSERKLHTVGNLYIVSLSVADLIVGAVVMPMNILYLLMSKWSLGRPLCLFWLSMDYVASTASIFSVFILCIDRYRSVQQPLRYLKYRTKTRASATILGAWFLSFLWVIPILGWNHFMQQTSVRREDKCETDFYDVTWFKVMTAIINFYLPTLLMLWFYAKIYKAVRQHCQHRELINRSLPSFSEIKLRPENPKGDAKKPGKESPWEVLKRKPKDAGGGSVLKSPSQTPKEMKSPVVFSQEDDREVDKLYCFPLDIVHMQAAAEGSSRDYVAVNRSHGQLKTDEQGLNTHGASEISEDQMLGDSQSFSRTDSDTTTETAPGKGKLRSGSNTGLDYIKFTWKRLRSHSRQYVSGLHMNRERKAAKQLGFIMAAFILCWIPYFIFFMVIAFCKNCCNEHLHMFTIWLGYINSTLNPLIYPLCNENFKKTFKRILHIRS

[11] = target: T3, Substance-K receptor (Homo sapiens) (UniProt P21452); assay: Antagonist activity at recombinant human NK2R assessed as inhibition of agonist-induced effect at 10 uM by aequorin reporter based assay; assay type: functional
T3 sequence (whole entry): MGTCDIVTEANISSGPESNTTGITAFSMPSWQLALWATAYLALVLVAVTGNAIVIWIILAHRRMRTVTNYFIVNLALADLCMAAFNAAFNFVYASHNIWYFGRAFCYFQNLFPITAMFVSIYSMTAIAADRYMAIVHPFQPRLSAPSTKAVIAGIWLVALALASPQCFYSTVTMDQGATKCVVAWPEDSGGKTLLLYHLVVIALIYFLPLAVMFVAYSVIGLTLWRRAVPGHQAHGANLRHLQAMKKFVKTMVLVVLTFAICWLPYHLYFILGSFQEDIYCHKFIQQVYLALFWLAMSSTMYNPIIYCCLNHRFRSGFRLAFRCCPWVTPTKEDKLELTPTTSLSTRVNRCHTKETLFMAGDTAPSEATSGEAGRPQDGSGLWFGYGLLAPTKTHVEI

[12] = target: T4, Neuropeptide Y receptor type 1 (Homo sapiens) (UniProt P25929); assay: Agonist activity at recombinant human NPY1R assessed as induction of cAMP levels at 10 uM by HTRF assay relative to agonist; assay type: functional
T4 sequence (whole entry): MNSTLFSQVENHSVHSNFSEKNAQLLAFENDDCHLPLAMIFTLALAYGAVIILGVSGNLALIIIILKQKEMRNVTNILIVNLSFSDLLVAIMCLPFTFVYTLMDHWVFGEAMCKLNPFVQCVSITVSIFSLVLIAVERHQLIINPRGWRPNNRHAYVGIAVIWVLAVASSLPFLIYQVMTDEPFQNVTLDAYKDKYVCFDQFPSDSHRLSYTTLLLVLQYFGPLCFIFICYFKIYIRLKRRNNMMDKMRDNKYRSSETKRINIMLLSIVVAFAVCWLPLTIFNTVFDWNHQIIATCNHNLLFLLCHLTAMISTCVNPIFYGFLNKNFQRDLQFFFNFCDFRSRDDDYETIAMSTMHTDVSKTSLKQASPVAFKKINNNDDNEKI

[13] = target: Kappa-type opioid receptor (Homo sapiens) (UniProt P41145); assay: Antagonist activity at human kappa-type opioid receptor assessed as inhibition of agonist-induced effect at 10 uM by GTPgamma[35S] binding-based assay; assay type: functional
Sequence of Kappa-type opioid receptor (Homo sapiens) (P41145 whole entry): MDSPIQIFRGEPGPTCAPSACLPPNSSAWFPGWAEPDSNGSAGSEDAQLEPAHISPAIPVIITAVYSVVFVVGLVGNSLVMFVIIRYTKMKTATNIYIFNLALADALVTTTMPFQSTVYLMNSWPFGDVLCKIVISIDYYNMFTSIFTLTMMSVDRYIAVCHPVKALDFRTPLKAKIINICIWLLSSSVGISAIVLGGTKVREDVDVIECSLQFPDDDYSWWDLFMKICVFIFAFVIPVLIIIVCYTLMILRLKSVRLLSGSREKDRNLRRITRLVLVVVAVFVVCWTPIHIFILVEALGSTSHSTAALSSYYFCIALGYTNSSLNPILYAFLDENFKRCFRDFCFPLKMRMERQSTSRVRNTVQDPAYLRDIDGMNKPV

Sequence of 5-hydroxytryptamine receptor 1B (Homo sapiens) (P28222 whole entry): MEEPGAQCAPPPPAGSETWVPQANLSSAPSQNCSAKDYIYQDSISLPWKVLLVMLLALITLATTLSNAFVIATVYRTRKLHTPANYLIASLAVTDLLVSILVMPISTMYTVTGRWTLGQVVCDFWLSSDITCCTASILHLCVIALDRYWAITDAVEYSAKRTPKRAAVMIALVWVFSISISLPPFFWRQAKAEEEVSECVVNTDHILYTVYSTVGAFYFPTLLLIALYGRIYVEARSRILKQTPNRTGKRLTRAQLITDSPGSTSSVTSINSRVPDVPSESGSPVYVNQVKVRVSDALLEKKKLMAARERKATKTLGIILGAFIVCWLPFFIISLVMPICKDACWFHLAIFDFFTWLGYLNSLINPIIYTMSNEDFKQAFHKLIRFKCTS

SMILES	inhibition [1] [%]	Activity [2] [%]	Activity [3] [%]	Activity [4] [%]	Activity [5] [%]	Activity [6] [%]	Activity [7] [%]	inhibition [8] [%]	Activity [9] [%]	Activity [10] [%]	inhibition [11] [%]	Activity [12] [%]	inhibition [13] [%]
COc1cccc(C(=O)NCCCN(C)Cc2ccccc2)c1	13	5	-12	-3	5	-10	-2	0	16	14	19	0	4
CN(CCCNC(=O)c1cccc(Br)c1)Cc1ccccc1	35	-3	-1	-1	-25	10	0	1	-2	35	9	1	26
CN(CCCNC(=O)c1ccc(Cl)cc1)CCc1ccccc1	65	75	-3	0	-6	18	-2	35	25	12	5	-4	26
CN(CCCNC(=O)c1ccc(C(F)(F)F)cc1)Cc1ccccc1	11	-7	8	-1	-22	2	-2	9	25	0	6	9	28
CCCc1ccc(C(=O)NCCCN(C)Cc2ccccc2)cc1	-8	63	-6	0	-19	6	-1	6	4	0	5	2	26

Second part, the molecule after the results:

inhibition [1] [%]	Activity [2] [%]	Activity [3] [%]	Activity [4] [%]	Activity [5] [%]	Activity [6] [%]	Activity [7] [%]	inhibition [8] [%]	Activity [9] [%]	Activity [10] [%]	inhibition [11] [%]	Activity [12] [%]	inhibition [13] [%]	SMILES
4	2	-4	-1	-11	3	-1	3	20	0	9	1	21	CN(CCCNC(=O)c1ccc([N+](=O)[O-])cc1)Cc1ccccc1
7	13	-5	-9	-12	-3	-2	3	-15	0	15	3	23	CN(CCNC(=O)c1ccc([N+](=O)[O-])cc1)Cc1ccccc1
17	-1	-7	-7	-8	-5	-2	0	-23	0	29	4	9	CN(CCNC(=O)c1ccc(C#N)cc1)Cc1ccccc1
0	11	-7	1	-7	2	-1	3	-1	1	7	5	22	CN(CCCNC(=O)c1ccc(Br)cc1)Cc1ccccc1
11	12	-9	0	-3	4	-1	4	-3	1	18	2	24	CN(CCCNC(=O)c1ccc(Cl)cc1)Cc1ccccc1
18	5	-13	-5	-13	-12	-1	-2	-14	0	22	1	23	COc1ccc(C(=O)NCCCN(C)Cc2ccccc2)cc1
1	62	-5	-1	-22	7	-2	1	-2	0	6	-2	40	CN(CCNC(=O)c1ccc(Cl)cc1)Cc1ccccc1
